The values that follow come from patent US6103709A (priority 1998, dated 2000).

Test [1] has as its system rapid responses (VDRmem). Nature of the test: Antagonist function (summary classification). The following applies: Yes/No, Tables 1 and 6. From the text: (§1) Table 6 identifies biological properties, such as genomic response, rapid response, agonist or antagonist function, binding of the analog to the vitamin binding protein (expressed as RCI), binding to the nuclear 1α,25(OH)2 D3 receptor (expressed as RCI) rapid response (expressed as % transcaltachia the rapid hormonal stimulation of intestinal calcium absorption) the classic vitamin D responses such as intestinal Ca^2+ absorption (ICA) and bone Ca^2+ mobilizing activity (BCM) determined in vivo in a vitamin D-deficient chick, and cell differentiation (expressed as % ED50), an assessment of the ability to promote the nuclear response of cell differentiation.

Test [2] deals with MAP-kinase p42^mapk in NB4 cells. Nature of the test: MAP-kinase activation (p42mapk phosphorylation) in NB4 cells. Format: cell-based, human. The following applies: 1 or 5 minutes exposure. As to the method: In order to determine whether MAP-kinase phosphorylation is specific and is altered by 1α,25(OH)2 D3, the time-dependent effects of 1α,25(OH)2 D3 on p42^mapk phosphorylation was examined using human acute promyelocytic leukemia cells (NB4). In this study, the NB4 cells, cultured in 10% charcoal-stripped fetal calf serum (FCS) medium, were treated with 1α,25(OH)2 D3 at 10^-8 M for various time periods. Cells were then extracted and the phosphorylated MAP-kinase was immunoprecipitated with anti-phosphotyrosine antibody and further analyzed by Western blot using the antibodies against p42^mapk.
The lysate was further processed for anti-phosphotyrosine immunoprecipitation. […] After transferring the proteins to the PVDF membrane, the membrane was further incubated with primary anti-p42^mapk antibodies that were (+) or were not (-) pre-exposed to MAP-kinase peptide.
This example describes assays used for measurement of MAP-kinase activity in NB4 cells.
Cell culture of NB4 cells
The cell line is characterized by a translocation involving chromosomes 15 and 17, which is typical of the classical form of APL-M3 in the French-American-British [FAB] classification. NB4 cells were cultured in DMEM/F12 medium with 10% FCS at 5% CO2 balanced air and were routinely passaged as suspension cultures and only passages 8 to 20 were used for each assay.
Immunoprecipitation of Tyrosine-Phosphorylated Proteins
NB4 cells were cultured in 60-mm diameter dishes and treated with 1,25(OH)2 D3 or analogs in 4 ml of DMEM/F12 containing 10% charcoal-stripped FCS.
Insoluble material was removed in a microcentrifuge at 14,000 rpm for 10 min. Protein concentration was determined with a protein assay kit (Bio-Rad Lab, Hercules, Calif.). For immunoprecipitation, the supernatant was incubated with bead-conjugated monoclonal anti-phosphotyrosine antibody overnight at 4° C. The immunoprecipitates containing the tyrosine-phosphorylated proteins were washed four times with freshly-prepared RIPA buffer and further eluted with 2× Laemmli gel buffer.
At this point, the samples were either stored at -20° C. for further use or processed via Western blots. Equal loading of MAP-kinase protein was determined by running the Western blots using polyclonal anti-p42^mapk antibody. For this purpose, samples were aliquoted from each cell extract before immunoprecipitation.
SDS Gel Electrophoresis and Western blot
The membrane was further immunoblotted using a rabbit anti-p42^mapk polyclonal antibody overnight at 4° C. followed by incubation with secondary horseradish peroxidase-conjugated mouse anti-rabbit antibody for 1 hr at 25° C. The phosphorylated MAP-kinase bands were then visualized by enhanced chemiluminescence (ECL). A Ultrascan LX Laser Densitometer (LKB, Bromma, Sweden) scanned the density of the immuno-phosphoprotein bands. The results were normalized by protein loading and further plotted as percent of control of the band density.

Test [3] concerns chloride channels in ROS 17/2.8 cells. As to the method:
In each case, at least a 3-min period was allowed after the addition of the analog to the bath for currents to reach a stable amplitude value. […] Anion currents were isolated from inward Ba^2+ currents after blockade of Ca^2+ channels with 100 μM Cd^2+.

In test [4] the test system is vitamin D-deficient chick. Put plainly: Bone Ca2+ mobilizing activity (BCM) in vitamin D-deficient chick. It is filed as in vivo. The following applies: i.m. As to the method:
The bone calcium mobilizing (BCM) assay is also conducted in the vitamin D-deficient chick. The BCM assay determines the relative ability of the tested analog to mobilize bone calcium. The natural hormone 1α,25(OH)2 D3 is very potent in the BCM assay. For example, when 1α,25(OH)2 D3 in inappropriate amounts are used as a drug in human patients, the patient may become hypercalcemic and eventually hypercalciuria with nephrolithiasis and renal failure may develop. The BCM assay was used to determine the relative activity of the analogs of the invention to stimulate bone Ca^2+ mobilization.
(§2) Results of the testing of the analogs of the invention in vivo by the ICA and IBM assays are shown in FIG. 9 which illustrates the capability of analogs LO, EV and HR to stimulate intestinal Ca^2+ absorption (ICA) and bone Ca^2+ mobilizing activity (BCM). In this study, the analogs of 1α,25(OH) were given i.m. to vitamin D-deficient chicks 12 hours before the assay began. The activity produced by 100 pmol of 1α,25(OH)2 D3 was set to be 100% for both ICA and BCM. The dose of the analogs required to achieve a biological response for either ICA or BCM equivalent to the 100 pmol dose of 1α,25(OH)2 D3 was calculated and converted to a percentage. Results are expressed as mean +SE of groups of seven chicks. Each assay included a negative control (-D), that is no vitamin D was present, and a positive control, where vitamin D3 (+D3) was present in 3.25 nmol. […] 1α,25(OH)2 D3 and analogs LO [14α,15α-methano-1α,25(OH)2 D3 ], EV [22-(m(dimethylhydroxymethyl)phenyl)-23,24,25,26,27-pentanor-1α-OH-D3 ] and HR [(22R)-1,25(OH)2 -22,23-diene-D3 ] were administered in 0.0065, 0.065, 0.65 and 6.5 nmol as shown.
(§3) In Vivo Assays of Intestinal Calcium Absorption and Bone Calcium Mobilization
(§4) This example describes assays used for determination of analogs biological activity in intestinal calcium absorption (ICA) and bone calcium mobilization (BCM) assays.
(§5) ICA and BCM were measured in vivo in the vitamin D-deficient chick model system according to Biochem. Pharmacol., 18: 2347 (1969).
(§6) Twelve hours before assay, the chickens, which had been placed on a zero-calcium diet 48 h before assay, were injected intramuscularly with the vitamin metabolite 1α,25(OH)2 D3 or analog (1-10,000 pmoles) dissolved in 0.1 mL of ethanol/1,2-propanediol (1:1, v/v). At the time of assay, 4.0 mg of ^40 Ca^2+ +5 μCi of ^45 Ca^2+ (New England Nuclear) were placed in the duodenum of the birds lightly anesthetized with ether. After 30 min, the birds were decapitated and the blood was collected.
BCM activity was estimated from the increase of total serum calcium concentration, as determined by atomic absorption spectrophotometry.

In test [5] the test system is VDRmem. Put plainly: Rapid response (summary classification). Particulars: Yes/No, Tables 1 and 6.
Text: as §1

Test [6] relates to keratinocytes. The following applies: cell cultures of keratinocytes; cited from earlier work.
In test [7] the test system is vitamin D-deficient chick. Nature of the test: Intestinal Ca2+ absorption (ICA) in vitamin D-deficient chick. Format: in vivo. Particulars: i.m. As to the method:
A primary fundamental physiological property of vitamin D and particularly 1α,25(OH)2 D3 is its ability to stimulate the intestinal absorption of calcium and facilitate the availability of dietary calcium to the organism. Intestinal absorption of the calcium is measured by the intestinal calcium absorption (ICA) assay, developed in the model of vitamin-D deficient chicks. The ICA assay was used to determine the relative capability of the tested analog to stimulate intestinal Ca^2+ absorption.
as §2, §3, §4, §5, §6
The radioactivity content, which is a measure of ICA, of 0.2 mL of serum was measured in a liquid scintillation counter (Beckman LS8000) to determine the amount of ^45 Ca^2+ absorbed.

Test [8] has as its system VDRnuc. Nature of the test: Genomic response (summary classification). The following applies: Yes/No, Tables 1 and 6.
Text: as §1

[9] abbreviates: relative to 100 pmol 1α,25(OH)2 D3 = 100%, 12 h before assay.

The structures appear in SMILES notation. Entries after “also recorded” stand apart in the source; their conditions may differ.

Consider `C=C1/C(=C\C=C2/CCC[C@]3(C)[C@@H]([C@H](C)CCCC(C)(C)O)CC[C@@H]23)C[C@@H](O)C[C@@H]1O` [Analog C, 1α,25-dihydroxyvitamin D3, reference compound], for which the Antagonist entry in test [1] is listed as “No”. In addition, the “phosphorylation / activation of MAP-kinase p42mapk (in words)” value in test [2] is “significantly increased phosphorylation of p42^mapk in NB4 cells”. Further, in test [3] (0.05-50 nM, alone, listed as 1α,25(OH)2 D3), the “opening of chloride channels (in words)” value is reported as “concentration-dependent effect on the promotion of anion currents; also recorded: agonist which opens chloride channels”. Also, the “cells responding with promotion of anion currents” value in test [3] (1α,25(OH)2 D3 alone, 14 out of 15 cells) stood at 93%. The “Classic Vit D Responses BCM” value in test [4] (setting [9]) was determined as 100%. Besides, the “BCM (in words)” value in test [4] (vitamin D-deficient chick) was “most potent stimulator of ICA and BCM”. For the same compound, in test [5], the “Rapid Response” value is listed as “Yes”. The “production of keratin, involucrin and loricrin” value in test [6] is “stimulate the production of keratin, involucrin and loricrin”. Moreover, in test [7] (setting [9]), the “Classic Vit D Responses ICA” value is 100%. Further, the “ICA (in words)” value in test [7] (vitamin D-deficient chick) is “most potent stimulator of ICA and BCM”. The “Genomic Response” value in test [8] is listed as “Yes”.
